target: recombinant HCV NS5B (HCV RNA-dependent RNA polymerase) (Hepatitis C virus genotype 1b, UniProt P26663); test: biochemical; conditions: HCV polymerase activity, list of compounds of Example 27; read-out: IC50 (polymerase activity)
Sequence (P26663 2420-3010 limits assumed): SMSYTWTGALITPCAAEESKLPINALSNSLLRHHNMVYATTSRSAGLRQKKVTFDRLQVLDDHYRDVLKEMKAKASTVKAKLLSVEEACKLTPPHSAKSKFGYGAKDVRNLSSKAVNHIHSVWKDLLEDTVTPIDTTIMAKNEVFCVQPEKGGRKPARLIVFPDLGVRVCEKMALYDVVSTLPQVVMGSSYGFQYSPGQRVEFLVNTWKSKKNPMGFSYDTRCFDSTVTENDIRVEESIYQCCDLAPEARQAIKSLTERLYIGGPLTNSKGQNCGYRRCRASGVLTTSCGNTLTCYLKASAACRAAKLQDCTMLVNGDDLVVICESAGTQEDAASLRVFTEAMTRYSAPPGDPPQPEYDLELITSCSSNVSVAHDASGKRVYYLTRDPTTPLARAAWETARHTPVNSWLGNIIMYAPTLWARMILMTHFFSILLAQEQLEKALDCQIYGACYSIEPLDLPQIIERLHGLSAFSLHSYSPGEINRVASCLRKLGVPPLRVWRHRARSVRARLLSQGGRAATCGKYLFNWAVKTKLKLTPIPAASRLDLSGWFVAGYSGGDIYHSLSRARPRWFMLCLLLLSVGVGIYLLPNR

First: CC(=O)N(Cc1cccc(Cl)c1)c1cc(-c2ccccc2)sc1C(=O)O [Compound 476, 3-[ACETYL-(3-CHLORO-BENZYL)-AMINO]- 5-PHENYL-THIOPHENE-2-CARBOXYLIC ACID]
Second: CCC(=O)N(Cc1cccc(Cl)c1)c1cc(-c2ccccc2)sc1C(=O)O [Compound 477, 3-[(3-CHLORO-BENZYL)-PROPIONYL- AMINO]-5-PHENYL-THIOPHENE-2- CARBOXYLIC ACID]
The IC50 of the first is higher: over 20 µM for the first, 5 to 20 µM for the second.

`CN(C(=O)C1CCCC1)c1cc(-c2ccccc2)sc1C(=O)O` [Compound 497, 3-(CYCLOPENTANECARBONYL-METHYL- AMINO)-5-PHENYL-THIOPHENE-2- CARBOXYLIC ACID] and `Cc1ccc(CN(C(=O)C2CCC2)c2cc(-c3ccccc3)sc2C(=O)O)cc1` [Compound 435, 3-[CYCLOBUTANECARBONYL-(4- METHYL-BENZYL)-AMINO]-5-PHENYL- THIOPHENE-2-CARBOXYLIC ACID] cannot be ordered by IC50: under 5 µM for the first, under 5 µM for the second.

`CC(C)(C)c1ccc(CN(C(=O)C2CCCCC2)c2cc(-c3ccccc3)sc2C(=O)O)cc1` [Compound 441, 3-[(4-TERT-BUTYL-BENZYL)- CYCLOHEXANECARBONYL-AMINO]-5- PHENYL-THIOPHENE-2-CARBOXYLIC ACID] and `CCCC(=O)N(Cc1ccccc1Cl)c1cc(-c2ccccc2)sc1C(=O)O` [Compound 447, 3-[BUTYRYL-(2-CHLORO-BENZYL)- AMINO]-5-PHENYL-THIOPHENE-2- CARBOXYLIC ACID] cannot be ordered by IC50: under 5 µM for the first, under 5 µM for the second.

`COc1ccc(-c2cc(NS(=O)(=O)c3ccc(C)cc3)c(C(N)=O)s2)cc1` [Compound 565, 5-(4-METHOXY-PHENYL)-3-(TOLUENE-4- SULFONYLAMINO)-THIOPHENE-2- CARBOXYLIC ACID AMIDE] and `Cc1ccc(S(=O)(=O)Nc2cc(-c3ccccc3)sc2C(=O)NC2CCC2)cc1` [Compound 567, 5-PHENYL-3-(TOLUENE-4- SULFONYLAMINO)-THIOPHENE-2- CARBOXYLIC ACID CYCLOBUTYLAMIDE] fall in the same range of IC50: 5 to 20 µM for the first, 5 to 20 µM for the second.

`CC1CCC(C(=O)N(c2cc(-c3ccccc3)sc2C(=O)O)C(C)C)C(=O)C1` (stereo not shown) [Compound 513, 3-[ISOPROPYL-(4-METHYL-2-OXO- CYCLOHEXANECARBONYL)-AMINO]-5- PHENYL-THIOPHENE-2-CARBOXYLIC ACID] and `CC1CCC(C(=O)N(c2cc(C3=CCN(C(=O)OCc4ccccc4)CC3)sc2C(=O)O)C(C)C)CC1` (stereo not shown) [Compound 524, 4-{5-CARBOXY-4-[ISOPROPYL-(4- METHYL-CYCLOHEXANECARBONYL)- AMINO]-THIOPHEN-2-YL}-3,6-DIHYDRO- 2#H!-PYRIDINE-1-CARBOXYLIC ACID BENZYL ESTER] cannot be ordered by IC50: under 5 µM for the first, under 5 µM for the second.

`CC1CCC(C(=O)N(c2cc(-c3ccccc3)sc2C(=O)O)C2CCOCC2)CC1` (stereo not shown) [Compound 572, 3-[(4-METHYL- CYCLOHEXANECARBONYL)- (TETRAHYDRO-PYRAN-4-YL)-AMINO]-5- PHENYL-THIOPHENE-2-CARBOXYLIC ACID] was tested, and the IC50 was under 5 µM.

same assay, conditions: related polymerase activity (Example 27 list); read-out: IC50

First: Cc1ccccc1S(=O)(=O)Nc1cc(-c2ccc(C#N)cc2)sc1C(=O)O [Compound 83, 5-(4-CYANO-PHENYL)-3-(TOLUENE-2-SULFONYLAMINO)-THIOPHENE-2-CARBOXYLIC ACID]
Second: Cc1ccccc1S(=O)(=O)Nc1cc(-c2ccccc2C#N)sc1C(=O)O [Compound 102, 5-(2-CYANO-PHENYL)-3-(TOLUENE-2-SULFONYLAMINO)-THIOPHENE-2-CARBOXYLIC ACID]
The IC50 of the first is lower: under 5 µM for the first, 5 to 20 µM for the second. The first is the more potent here.

Compared with `Cc1ccc(C)c(S(=O)(=O)Nc2cc(-c3ccc([N+](=O)[O-])cc3)sc2C(=O)O)c1` [Compound 100, 3-(2,5-DIMETHYL-BENZENESULFONYLAMINO)-5-(4-NITRO-PHENYL)-THIOPHENE-2-CARBOXYLIC ACID], `CCOC(=O)c1cccc(-c2cc(NS(=O)(=O)c3ccccc3C)c(C(=O)O)s2)c1` [Compound 121, 5-(3-ETHOXYCARBONYL-PHENYL)-3-(TOLUENE-2-SULFONYLAMINO)-THIOPHENE-2-CARBOXYLIC ACID] is higher in IC50: under 5 µM for the first, 5 to 20 µM for the second. The first is the more potent here.

`CC(C)N(C(=O)c1ccc(Cl)cc1N)c1cc(-c2ccccc2)sc1C(=O)O` [Compound 328, 3-[(2-AMINO-4-CHLORO-BENZOYL)- ISOPROPYL-AMINO]-5-PHENYL- THIOPHENE-2-CARBOXYLIC ACID] and `Cc1cc(Cl)ccc1C(=O)N(c1cc(-c2ccccc2)sc1C(=O)O)C(C)C` [Compound 234, 3-[(4-CHLORO-2-METHYL-BENZOYL)-ISOPROPYL-AMINO]-5-PHENYL-THIOPHENE-2-CARBOXYLIC ACID] cannot be ordered by IC50: under 5 µM for the first, under 5 µM for the second.

First: O=C(O)c1sc(-c2ccccc2)cc1NS(=O)(=O)c1c(Cl)cccc1Cl [Compound 44, 3-(2,6-DICHLORO-BENZENESULFONYLAMINO)-5-PHENYL-THIOPHENE-2-CARBOXYLIC ACID]
Second: O=C(O)c1sc(-c2ccccc2)cc1NS(=O)(=O)c1cc(Cl)sc1Cl [Compound 55, 3-(2,5-DICHLORO-THIOPHENE-3-SULFONYLAMINO)-5-PHENYL-THIOPHENE-2-CARBOXYLIC ACID]
The IC50 of the first is lower: under 5 µM for the first, 5 to 20 µM for the second.

`Cc1ccc(C(=O)N(C)c2cc(-c3ccc(C#N)cc3)sc2C(=O)O)cc1` [Compound 193, 5-(4-CYANO-PHENYL)-3-[METHYL-(4-METHYL-BENZOYL)-AMINO]-THIOPHENE-2-CARBOXYLIC ACID] and `Cc1ccc(C(=O)N(C)c2cc(-c3ccc(Cl)cc3)sc2C(=O)O)cc1` [Compound 192, 5-(4-CHLORO-PHENYL)-3-[METHYL-(4-METHYL-BENZOYL)-AMINO]-THIOPHENE-2-CARBOXYLIC ACID] fall in the same range of IC50: 5 to 20 µM for the first, 5 to 20 µM for the second.

`C=CCN(C(=O)c1ccc(C)cc1)c1cc(-c2cccc(/C=C/C(=O)O)c2)sc1C(=O)O` [Compound 323, 3-[ALLYL-(4-METHYL-BENZOYL)-AMINO]- 5-[3-(2-CARBOXY-VINYL)-PHENYL]- THIOPHENE-2-CARBOXYLIC ACID] and `CC(C)=CCN(C(=O)c1ccc(C)cc1)c1cc(-c2ccccc2)sc1C(=O)O` [Compound 300, 3-[(4-METHYL-BENZOYL)-(3-METHYL- BUT-ENYL)-AMINO]-5-PHENYL- THIOPHENE-2-CARBOXYLIC ACID] fall in the same range of IC50: 5 to 20 µM for the first, 5 to 20 µM for the second.

`CC(C)N(C(=S)c1ccc(Cl)cc1Cl)c1cc(-c2ccccc2)sc1C(=O)O` [Compound 297, 3-[(2,4-DICHLORO-THIOBENZOYL)-ISOPROPYL-AMINO]-5-PHENYL-THIOPHENE-2-CARBOXYLIC ACID] and `Cc1cccc(-c2cc(N(C(=O)c3ccc(Cl)cc3Cl)C(C)C)c(C(=O)O)s2)c1` [Compound 357, 3-[(2,4-DICHLORO-BENZOYL)- ISOPROPYL-AMINO]-5-M-TOLYL- THIOPHENE-2-CARBOXYLIC ACID] cannot be ordered by IC50: under 5 µM for the first, under 5 µM for the second.

`O=C(O)c1sc(-c2ccccc2)cc1NC(=O)N1CCN(c2cccc(Cl)c2)CC1` [Compound 160, 3-{[4-(3-CHLORO-PHENYL)-PIPERAZINE-1-CARBONYL]-AMINO}-5-PHENYL-THIOPHENE-2-CARBOXYLIC ACID] and `O=C(O)c1sc(-c2ccccc2)cc1NC(=O)N1CCN(c2cccc(C(F)(F)F)c2)CC1` [Compound 156, 5-PHENYL-3-{[4-(3-TRIFLUOROMETHYL-PHENYL)-PIPERAZINE-1-CARBONYL]-AMIN}-THIOPHENE-2-CARBOXYLIC ACID] fall in the same range of IC50: 5 to 20 µM for the first, 5 to 20 µM for the second.

Compared with `Cc1ccccc1S(=O)(=O)Nc1cc(-c2nccs2)sc1C(=O)O` [Compound 178, 5-THIAZOL-2-YL-3-(TOLUENE-2-SULFONYLAMINO)-THIOPHENE-2-CARBOXYLIC ACID], `C=Cc1ccccc1S(=O)(=O)Nc1cc(-c2ccccc2)sc1C(=O)O` [Compound 137, 5-PHENYL-3-(2-VINYL-BENZENESULFONYLAMINO)-THIOPHENE-2-CARBOXYLIC ACID] is higher in IC50: under 5 µM for the first, 5 to 20 µM for the second.

`Cc1ccc(C(=O)N(c2cc(-c3ccc(F)cc3)sc2C(=O)O)C(C)C)cc1` [Compound 283, 5-(4-FLUORO-PHENYL)-3-[ISOPROPYL-(4-METHYL-BENZOYL)-AMINO]-THIOPHENE-2-CARBOXYLIC ACID] and `Cc1ccc(C(=O)N(C)c2cc(-c3cccc([N+](=O)[O-])c3)sc2C(=O)O)cc1` [Compound 196, 3-[METHYL-(4-METHYL-BENZOYL)-AMINO]-5-(3-NITRO-PHENYL)-THIOPHENE-2-CARBOXYLIC ACID] cannot be ordered by IC50: under 5 µM for the first, under 5 µM for the second.

Compared with `CCN(C(=O)C1CCCC1)c1cc(-c2ccccc2)sc1C(=O)O` [Compound 391, 3-(CYCLOPENTANECARBONYL-ETHYL- AMINO)-5-PHENYL-THIOPHENE-2- CARBOXYLIC ACID], `O=C(O)c1sc(-c2ccccc2)cc1N(C(=O)c1ccc(Cl)cc1Cl)C1CC1` [Compound 333, 3-[CYCLOPROPYL-(2,4-DICHLORO- BENZOYL)-AMINO]-5-PHENYL- THIOPHENE-2-CARBOXYLIC ACID] is lower in IC50: 5 to 20 µM for the first, under 5 µM for the second. The second is the more potent here.

First: CC(=O)Nc1nc(C)c(S(=O)(=O)Nc2cc(-c3ccccc3)sc2C(=O)O)s1 [Compound 139, 3-(2-ACETYLAMINO-4-METHYL-THIAZOLE-5-SULFONYLAMINO)-5-PHENYL-THIOPHENE-2-CARBOXYLIC ACID]
Second: O=C(O)c1sc(-c2ccccc2)cc1NS(=O)(=O)c1cnc(Cl)c(Br)c1 [Compound 36, 3-(5-BROMO-6-CHLORO-PYRIDINE-3-SULFONYLAMINO)-5-PHENYL-THIOPHENE-2-CARBOXYLIC ACID]
The IC50 of the first is lower: 5 to 20 µM for the first, over 20 µM for the second. The first is the more potent here.

Compared with `O=C(O)c1sc(-c2ccccc2)cc1NC(=O)N1CCN(c2ccc(F)cc2)CC1` [Compound 157, 3-{[4-(4-FLUORO-PHENYL)-PIPERAZINE-1-CARBONYL]-AMINO}-5-PHENYL-THIOPHENE-2-CARBOXYLIC ACID], `O=C(O)c1sc(-c2ccccc2)cc1NS(=O)(=O)c1ccc(C(F)(F)F)cc1` [Compound 52, 5-PHENYL-3-(4-TRIFLUOROMETHYL-BENZENESULFONYLAMINO)-THIOPHENE-2-CARBOXYLIC ACID] is lower in IC50: over 20 µM for the first, under 5 µM for the second. The second is the more potent here.

`C=CCN(C(=O)Cc1ccc2ccccc2c1)c1cc(-c2ccccc2)sc1C(=O)O` [Compound 347, 3-[ALLYL-(2-NAPHTHALEN-2-YL-ACETYL)- AMINO]-5-PHENYL-THIOPHENE-2- CARBOXYLIC ACID] and `CN(C(=O)c1cc2ccccc2o1)c1cc(-c2ccccc2)sc1C(=O)O` [Compound 130, 3-[(BENZOFURAN-2-CARBONYL)-METHYL-AMINO]-5-PHENYL-THIOPHENE-2-CARBOXYLIC ACID] cannot be ordered by IC50: over 20 µM for the first, over 20 µM for the second.

`Cc1c(-c2ccccc2)sc(C(=O)O)c1N(C(=O)c1ccc(Cl)cc1Cl)C(C)C` [Compound 314, 3-[(2,4-DICHLORO-BENZOYL)- ISOPROPYL-AMINO]-4-METHYL-5- PHENYL-THIOPHENE-2-CARBOXYLIC ACID] showed an IC50 of 5 to 20 µM.

— patent US6881741B2 (ViroChem Pharma Inc., priority 2001, dated 2005)
